This is an account of results in US20090326003A1, “PYRAZOLO (3, 4-B) PYRIDINE DERIVATIVES AS PDE4 INHIBITORS” (priority 2006, published 2009).

For assay [1], the system named is atopic dermatitis patients. The following applies: 0.5% ointment, twice daily topical application; cited from earlier work.
For assay [2], the system named is COPD patients. The following applies: cited from earlier work.
The target in assay [3] is T1, PDE4B (human recombinant) (Homo sapiens, UniProt Q07343).
T1 construct: made in house
T1 sequence (Q07343 1-564 isoform Q07343-2): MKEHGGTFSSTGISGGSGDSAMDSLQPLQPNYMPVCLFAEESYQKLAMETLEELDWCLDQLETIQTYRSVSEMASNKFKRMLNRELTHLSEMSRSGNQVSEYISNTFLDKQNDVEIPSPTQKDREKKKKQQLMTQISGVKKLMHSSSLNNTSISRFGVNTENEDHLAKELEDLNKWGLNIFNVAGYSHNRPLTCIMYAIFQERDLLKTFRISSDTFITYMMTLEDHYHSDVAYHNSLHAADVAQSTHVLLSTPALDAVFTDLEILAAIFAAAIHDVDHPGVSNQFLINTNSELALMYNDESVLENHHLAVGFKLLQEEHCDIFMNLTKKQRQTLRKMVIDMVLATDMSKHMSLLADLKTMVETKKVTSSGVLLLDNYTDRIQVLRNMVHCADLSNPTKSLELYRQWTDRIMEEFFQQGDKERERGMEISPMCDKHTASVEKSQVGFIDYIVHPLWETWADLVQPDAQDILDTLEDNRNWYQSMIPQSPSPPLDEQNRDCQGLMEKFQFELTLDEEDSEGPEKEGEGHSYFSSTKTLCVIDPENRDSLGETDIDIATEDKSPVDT
Description: PDE4B inhibition, fluorescence polarisation (FP) and/or SPA assay. The assay is classed as biochemical. The following applies: n=1 or average of 2 or more readings, accuracy ±about 0.5 log unit, read-out: PDE4B pIC50 (generally in FP assay) (±about 0.5) (converted). The text has this:
Human recombinant PDE4B, in particular the 2B splice variant thereof (HSPDE4B2B), is disclosed in WO 94/20079 and also M. M. McLaughlin et al., “A low Km, rolipram-sensitive, cAMP-specific phosphodiesterase from human brain: cloning and expression of cDNA, biochemical characterisation of recombinant protein, and tissue distribution of mRNA”, J. Biol. Chem., 1993, 268, 6470-6476. For example, in Example 1 of WO 94/20079, human recombinant PDE4B is described as being expressed in the PDE-deficient yeast Saccharomyces cerevisiae strain GL62, e.g. after induction by addition of 150 uM CuSO4, and 100,000×g supernatant fractions of yeast cell lysates are described for use in the harvesting of PDE4B enzyme.
The ability of compounds to inhibit catalytic activity at PDE4B or 4D (human recombinant), PDE3 (from bovine aorta), PDE5 (human recombinant) or PDE6 (from bovine retina) can optionally be determined by Scintillation Proximity Assay (SPA) in a 96-well format.
Test compounds (as a solution in DMSO, preferably about 2 microliter (ul) volume of DMSO solution) are preincubated at ambient temperature (room temperature, e.g. 19-23° C.) in Wallac Isoplates (code 1450-514) with PDE enzyme in 50 mM Tris-HCl buffer pH 7.5, 8.3 mM MgCl2, 1.7 mM EGTA, 0.05% (w/v) bovine serum albumin for 10-30 minutes (usually 30 minutes). The enzyme concentration is adjusted so that no more than 20% hydrolysis of the substrate defined below occurs in control wells without compound, during the incubation. For the PDE3, PDE4B and PDE4D assays, [5′,8-3H]Adenosine 3′,5′-cyclic phosphate (Amersham Pharmacia Biotech, code TRK.559; or Amersham Biosciences UK Ltd, Pollards Wood, Chalfont St Giles, Buckinghamshire HP8 4SP, UK) is added to give 0.05 uCi per well and about 10 nM final concentration. For the PDE5 and PDE6 assays, [8-^3H]Guanosine 3′,5′-cyclic phosphate (Amersham Pharmacia Biotech, code TRK.392) is added to give 0.05 uCi per well and about 36 nM final concentration. Plates containing assay mixture, preferably approx. 100 ul volume of assay mixture, are mixed on an orbital shaker for 5 minutes and incubated at ambient temperature for 1 hour. Phosphodiesterase SPA beads (Amersham Pharmacia Biotech, code RPNQ 0150) are added (about 1 mg per well) to terminate the assay. Plates are sealed and shaken and allowed to stand at ambient temperature for 35 minutes to 1 hour (preferably 35 minutes) to allow the beads to settle. Bound radioactive product is measured using a WALLAC TRILUX 1450 Microbeta scintillation counter. For inhibition curves, 10 concentrations (e.g. 1.5 nM-30 uM) of each compound are assayed. Curves are analysed using ActivityBase and XLfit (ID Business Solutions Limited, 2 Ocean Court, Surrey Research Park, Guildford, Surrey GU2 7QB, United Kingdom) Results are expressed as pIC50 values.
The ability of compounds to inhibit catalytic activity at PDE4B (human recombinant) or PDE4D (human recombinant) can optionally be determined by IMAP Fluorescence Polarisation (FP) assay (IMAP Explorer kit, available from Molecular Devices Corporation, Sunnydale, Calif., USA; Molecular Devices code: R8062) in 384-well format.
The IMAP FP assay is able to measure PDE activity in an homogenous, non-radioactive assay format. The FP assay uses the ability of immobilised trivalent metal cations, coated onto nanoparticles (tiny beads), to bind the phosphate group of FI-AMP that is produced on the hydrolysis of fluorescein-labelled (FI) cyclic adenosine mono-phosphate (FI-cAMP) to the non-cyclic FI-AMP form. […] Binding of FI-AMP product to the beads (coated with the immobilised trivalent cations) slows the rotation of the bound FI-AMP and leads to an increase in the fluorescence polarisation ratio of parallel to perpendicular light. Inhibition of the PDE reduces/inhibits this signal increase. […]

Assay [4] concerns TNF-α production in human PBMC (peripheral blood mononuclear cells). As to the kind of experiment: Inhibition of TNF-alpha production in human PBMC (MSD technology). To be noted: inhibition of LPS-stimulated TNF-α production in human PBMC; measured and/or mean; read-out: PBMC pIC50 (MSD assay) (converted). The assay is classed as cell-based. The procedure:
A 96-well plate (96 MicroWell™ Plates Nunclon™Δ-High Flange Design, Fisher Scientific UK, Bishop Meadow Road, Loughborough LE 11 5 RG, Leicestershire, UK) is prepared by initially adding to column 1 ca. 10 mM of test compound dissolved in DMSO. […] The compound is further diluted with DMSO into columns 2 to 9 by 8 successive 3fold dilutions using the Biomek® FX Laboratory Automation Workstation (Beckman Coulter, Inc., 4300 N. Harbor Boulevard, P.O. Box 3100, Fullerton, Calif. 92834-3100 USA). Column 10 is used as a DMSO negative control (High Signal, 0% response), whilst column 11, which contains 10 mM of the PDE4 inhibitor roflumilast, is used as a positive control (Low Signal, 100% response). About 1 μl (about 1 ul) of compound is transferred to the compound plate using the Biomek® FX.
PBMC cells (peripheral blood mononuclear cells) are prepared from heparinised human blood (using 1% v/v Heparin Sodium 10001 U/ml Endotoxin Free, Leo Laboratories Ltd., Cashel Road, Dublin 12. Ireland, Cat No: PL0043/0149) from normal volunteers using the Accuspin™ System-Histopaque®-1077 essentially (Sigma-Aldrich Company Ltd., The Old Brickyard New Rd, Gillingham Dorset SP8 4XT). About 20 ml of blood is overlaid onto 15 ml Histopaque® in Accuspin™ tubes. The tube is then centrifuged at about 800 g for ca. 20 minutes. The cells are collected from the interface, washed by centrifugation (ca. 1300 g, ca. 10 minutes) and resuspended in RPMI1640 medium (Low endotoxin RPMI1640 medium, Cat No: 31870-025, Invitrogen Corporation Invitrogen Ltd, 3 Fountain Drive, Inchinnan Business Park, Paisley PA4 9RF, UK) containing 10% foetal calf serum, 1% L-glutamine (Invitrogen Corporation, Cat No: 25030024) and 1% penicillin/streptomycin (Invitrogen Corporation, Cat No: 15140-122). Viable cells are counted by trypan blue staining and diluted to 1×10^6 viable cells/ml. About 50 μl (about 50 ul) of diluted cells and about 75 μl (about 75 ul) of LPS (ca. 1 ng/ml final; Sigma Cat No: L-6386) are added to the compound plate, which is then incubated at 37° C., 5% CO2, for 20 hours.
The supernatant is removed and the concentrations of TNF-α are determined by electrochemiluminescence assay using the Meso Scale Discovery (MSD) technology (Meso Scale Discovery, 9238 Gaither Road, Gaithersburg, Md. 20877, USA). See the “TNF-α (TNF-alpha) MSD Assay” described below for typical details.
Using the Biomek FX, 25 μl (25 ul) of MSD Human Serum Cytokine Assay Diluent (Meso Scale Discovery, 9238 Gaither Road, Gaithersburg, Md. 20877) is added to a 96-well High-Bind MSD plate pre-coated with anti-hTNF alpha capture antibody (MA6000) and then incubated for 24 hours at 4° C. to prevent non-specific binding. […]
For the PBMC assay, about 20 μl (ul) of diluted sulfo-TAG antibody (ca. 1 μg/ml final) is added to each well, and the plates/wells are shaken at room temperature for 2 hours. Finally, about 90 μl (ul) of MSD Read Buffer P (diluted to 2.5 times with distilled water) is added and the plates are read on a MSD Sector 6000.
Data analysis is performed with ActivityBase/XC50 module (ID Business Solutions Ltd., 2 Occam Court, Surrey Research Park, Guildford, Surrey, GU2 7QB UK). Data are normalized and expressed as % inhibition using the formula 100*((U-C1)/(C2-C1)) where U is the unknown value, C1 is the average of the high signal (0%) control wells (column 10), and C2 is the average of the low signal (100%) control wells (column 11). […]

Assay [5] has as its system humans with histories of allergic rhinitis. The following applies: orally 500 ug once daily for 9 days; intranasal allergen provocation (pollen extracts); cited from earlier work.
Assay [6] concerns atopic dermatitis patients. The following applies: 0.15% cream versus vehicle and hydrocortisone 17-butyrate (0.1%) cream; cited from earlier work.

Molecules are shown by their SMILES.

As for `COc1ccc(C2CNC(=O)NC2)cc1O[C@H]1C[C@@H]2CC[C@H]1C2` [CP80,633], in assay [1], the “inflammatory parameters in atopic dermatitis patients” value is “reductions of inflammatory parameters”.

On to `COc1ccc([C@]2(C#N)CC[C@@H](C(=O)O)CC2)cc1OC1CCCC1` [cilomilast], for which, in assay [2] (15 mg orally twice daily), the “forced expiratory volume in 1 s (FEV1) in COPD patients” value is on record as “appears to improve”. Also, the “antiinflammatory effects in COPD patients” value in assay [2] (COPD patients) is listed as “appears to have antiinflammatory effects”.

Regarding `CCn1ncc2c(NC3CCOCC3)c(CNC(=O)c3ccc(-c4ccc(C(=O)NCc5c(C)nc6c(cnn6CC)c5NC5CCOCC5)cc4)cc3)c(C)nc21` [Example 28, N,N′-bis{[1-ethyl-6-methyl-4-(tetrahydro-2H-pyran-4-ylamino)-1H-pyrazolo[3,4-b]pyridin-5-yl]methyl}-4,4′-biphenyldicarboxamide], the IC50 is about 0.0251 nM in assay [3] and about 0.126 nM in assay [4].

Regarding `O=C(Nc1c(Cl)cncc1Cl)c1ccc(OC(F)F)c(OCC2CC2)c1` [roflumilast], the “rhinal airflow during the treatment period (compared to placebo)” value in assay [5] is on record as “effective in improving rhinal airflow”. In addition, in assay [2] (COPD patients, dose not stated), the “FEV1 in COPD patients” value is given as “small improvements”.

`CCc1nc2c(cnn2CC)c(NC2CCOCC2)c1CNC(=O)c1cccc(-c2cccc(C(=O)NCc3c(CC)nc4c(cnn4CC)c3NC3CCOCC3)c2)c1` [Example 10, N,N′-bis{[1,6-diethyl-4-(tetrahydro-2H-pyran-4-ylamino)-1H-pyrazolo[3,4-b]pyridin-5-yl]methyl}-3,3′-biphenyldicarboxamide]: the IC50 is about 0.1 nM in assay [3] and about 0.02 nM in assay [4].

Take `Nc1nc2c([nH]1)c(=O)n(CC1CC1)c(=O)n2CC1CC1` [cipamfylline]: the “effectiveness in the treatment of atopic dermatitis patients” value in assay [6] is recorded as “significantly more effective than vehicle, but significantly less effective than hydrocortisone 17-butyrate (0.1%) cream”.
